# Assay results taken from patent publication US12138267B2, “Methods of treating respiratory depression modulated by a non-opioid agent” (Enalare Therapeutics Inc., priority 2021, dated 2024).
# “Also recorded” adds a separate entry of the source. Like-named read-outs stand apart in the source and are kept apart here.
# Legend:
# healthy participants [1] = experiment: Sedation (BIS), cardiovascular response and arterial blood gases; assay type: in vivo, human; conditions: versus placebo
# healthy participants [2] = test system: healthy participants
# healthy participants [3] = experiment: Safety and tolerability; assay type: in vivo, human
# Text: (§1) Subjects underwent 3 separate treatment periods. […] PD will be unblinded for treatment but not subject. […] Participant Disposition
# Moreover, the only participant who developed phlebitis received placebo. […] No clinically meaningful differences between treatments were identified in any other safety parameter.
# [4] = Pharmacokinetics of Compound A, plasma concentrations after IV infusion; assay type: in vivo, human
# Procedure: as §1
# Pharmacokinetic samples were measured up to 24 hours after the start of the IV infusion. […] Therefore, a fast decrease in concentration was observed, followed by a slow […].
# [5] = Compound A (dose not given; third treatment), first hypoxic measurement under hypercapnic conditions, without propofol
# [6] = Compound A (dose not given; third treatment), hypoxic/hypercapnic measurement during propofol high dose
# [7] = Compound A low dose, first hypoxic measurement under hypercapnic conditions, without propofol
# [8] = Compound A low dose, hypoxic/hypercapnic measurement during propofol high dose
structure (smiles),measurement,setting,value
CCCNc1nc(NCCC)nc(N(C)OC)n1 [Compound A],Cardiovascular response,healthy participants [1],No clinically meaningful difference on cardiovascular response
same,"Level of propofol-induced sedation / arousal, BIS",healthy participants [1]; with clinically relevant doses of propofol,did not impact the level of the propofol-induced sedation; also recorded: did not lead to a significant difference in arousal compared to placebo
same,Minute ventilation during hypoxic measurement,healthy participants [2]; [5],38.8 L/min
same,"Minute ventilation, pre-hypoxic baseline",healthy participants [2]; [5],8.5 L/min
same,Minute ventilation during hypoxic measurement,healthy participants [2]; [6],27.4 L/min
same,"Minute ventilation, pre-hypoxic baseline",healthy participants [2]; [6],8.4 L/min
same,ETCO2 difference prior to each hypoxic measurement,healthy participants [2]; Compound A high dose compared to placebo and low dose,approximately 3 mmHg
same,Increase in minute ventilation induced by hypercapnia,"healthy participants [2]; Compound A high dose group, during high dose propofol",more pronounced
same,Respiratory rate at pre-hypoxic timepoints,"healthy participants [2]; Compound A high dose, during propofol infusion",difference between Compound A high dose compared to placebo and Compound A low dose could be observed
same,ETCO2 compared to placebo,healthy participants [2]; Compound A low dose,comparable to placebo treatment
same,"Hypoxic Sensitivity, First LSM of contrast",healthy participants [2]; Compound A low dose (2 mg/kg/h 10 min then 0.4 mg/kg/h 260 min IV),0.747 L/min/%
same,Minute ventilation during hypoxic measurement,healthy participants [2]; [7],30.3 L/min
same,"Minute ventilation, pre-hypoxic baseline",healthy participants [2]; [7],8.1 L/min
same,Minute ventilation during hypoxic measurement,healthy participants [2]; [8],15.0 L/min
same,"Minute ventilation, pre-hypoxic baseline",healthy participants [2]; [8],6.3 L/min
same,Hypoxic sensitivity compared to placebo,healthy participants [2]; both with and without co-administration of propofol,increased hypoxic sensitivity compared to placebo
same,"Hypoxic Sensitivity, First LSM of contrast",healthy participants [2]; high dose (2 mg/kg/h 20 min then 1.1 mg/kg/h 250 min IV),1.179 L/min/%
same,"Hypoxic Sensitivity, Estimate of the difference",healthy participants [2]; high dose minus placebo,0.575 L/min/%
same,Hypoxic sensitivity during propofol,"healthy participants [2]; in vivo, 1.1 mg/kg",remain similar to pre-propofol values
same,"Hypoxic Sensitivity, Estimate of the difference",healthy participants [2]; low dose minus placebo,0.144 L/min/%
same,Nausea probably related to treatment,"healthy participants [3]; Compound A high dose, IV ondansetron pre-treatment",single occurrence of mild nausea
same,Treatment-related SAEs,healthy participants [3]; in vivo,No treatment-related SAEs
same,Trend in AEs,healthy participants [3]; in vivo,mild infusion site pain and related events
same,Safety and tolerability,"healthy participants [3]; two dose levels, healthy participants",safe and well tolerated; also recorded: favourable safety and tolerability profiles
same,AUCinf Min,"[4]; ENA-001 high dose, N 12",6235 ng·h/mL
same,AUClast Max,"[4]; ENA-001 high dose, N 12",13169 ng·h/mL
same,AUClast Min,"[4]; ENA-001 high dose, N 12",6169 ng·h/mL
same,CL Max,"[4]; ENA-001 high dose, N 12",67.8 L/h
same,CL Min,"[4]; ENA-001 high dose, N 12",23.8 L/h
same,Cmax Min,"[4]; ENA-001 high dose, N 12",1090 ng/mL
same,Cmin Geometric Mean,"[4]; ENA-001 high dose, N 12",867.4 ng/mL
same,Cmin Max,"[4]; ENA-001 high dose, N 12",1230 ng/mL
same,Cmin Mean,"[4]; ENA-001 high dose, N 12",886.6 ng/mL
same,Cmin Median,"[4]; ENA-001 high dose, N 12",859 ng/mL
same,Cmin Min,"[4]; ENA-001 high dose, N 12",601 ng/mL
same,t1/2 Max,"[4]; ENA-001 high dose, N 12",8.40 h
same,t1/2 Min,"[4]; ENA-001 high dose, N 12",3.39 h
same,tmax Max,"[4]; ENA-001 high dose, N 12",4.50 h
same,tmax Min,"[4]; ENA-001 high dose, N 12",1.92 h
same,AUCinf Max,"[4]; ENA-001 low dose, N 12",3148 ng·h/mL
same,AUCinf Min,"[4]; ENA-001 low dose, N 12",2155 ng·h/mL
same,AUClast Max,"[4]; ENA-001 low dose, N 12",3059 ng·h/mL
same,AUClast Min,"[4]; ENA-001 low dose, N 12",2151 ng·h/mL
same,CL Max,"[4]; ENA-001 low dose, N 12",75.5 L/h
same,CL Min,"[4]; ENA-001 low dose, N 12",41.9 L/h
same,Cmax Max,"[4]; ENA-001 low dose, N 12",563 ng/mL
same,Cmax Min,"[4]; ENA-001 low dose, N 12",375 ng/mL
same,Cmin Geometric Mean,"[4]; ENA-001 low dose, N 12",299.6 ng/mL
same,Cmin Max,"[4]; ENA-001 low dose, N 12",379 ng/mL
same,Cmin Mean,"[4]; ENA-001 low dose, N 12",302.3 ng/mL
same,Cmin Median,"[4]; ENA-001 low dose, N 12",296 ng/mL
same,Cmin Min,"[4]; ENA-001 low dose, N 12",251 ng/mL
same,t1/2 Max,"[4]; ENA-001 low dose, N 12",6.99 h
same,t1/2 Min,"[4]; ENA-001 low dose, N 12",3.00 h
same,tmax Max,"[4]; ENA-001 low dose, N 12",4.50 h
same,tmax Min,"[4]; ENA-001 low dose, N 12",3.33 h
same,Plasma values at 24 hours post-dose,"[4]; all participants, both dose levels",above the LLOQ
same,AUC(0-inf),"[4]; both sexes, human, plasma, intravenous, ENA-001 high dose, N 12, read-out: AUCinf Geometric Mean",8440 ng·h/mL
same,AUC(0-inf),"[4]; both sexes, human, plasma, intravenous, ENA-001 high dose, N 12, read-out: AUCinf Mean",8710 ng·h/mL
same,AUC(0-inf),"[4]; both sexes, human, plasma, intravenous, ENA-001 high dose, N 12, read-out: AUCinf Median",7800 ng·h/mL
same,AUC(0-t),"[4]; both sexes, human, plasma, intravenous, ENA-001 high dose, N 12, read-out: AUClast Geometric Mean",8240 ng·h/mL
